Laboratory results from PubChem BioAssay AID330 (DTP/NCI, 2004).
Several values for one entry are separate records, joined by “and”; a condition that tells them apart may be missing. Identical values can stand only once. Inconclusive results and toxic doses are left out. Rule for the calls: active = survival T/C of 150% or more; inactive = T/C below 125% in these data.

Test system: P388 leukemia ip, CD2F1 mice, survival T/C
Assay: NCI In Vivo Anticancer Drug Screen. Data for tumor model P388 Leukemia (intraperitoneal) in CD2F1 (CDF1) mice
Conditions: endpoint: median survival time, higher = longer survival
In short: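 Mice carrying the transplanted tumor received test compound or vehicle. Survival was recorded in each group, and the value is the treated-group measurement divided by that of the vehicle-treated control group.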

[1] = dose: 50.0 mg/kg/injection, schedule: Q01DX005 (ip), vehicle: Klucel (hydroxypropylcellulose) (HPC)
[2] = dose: 100.0 mg/kg/injection, schedule: Q01DX005 (ip), vehicle: Klucel (hydroxypropylcellulose) (HPC)
[3] = dose: 100.0 mg/kg/injection, schedule: Q01DX001 (ip), vehicle: saline with Tween-80
[4] = dose: 200.0 mg/kg/injection, schedule: Q01DX001 (ip), vehicle: saline with Tween-80
[5] = dose: 50.0 mg/kg/injection, schedule: Q01DX009 (ip), vehicle: Klucel (hydroxypropylcellulose) (HPC)
[6] = dose: 100.0 mg/kg/injection, schedule: Q01DX009 (ip), vehicle: Klucel (hydroxypropylcellulose) (HPC)
[7] = dose: 60.0 mg/kg/injection, schedule: Q01DX005 (ip), vehicle: saline with Tween-80
[8] = dose: 120.0 mg/kg/injection, schedule: Q01DX005 (ip), vehicle: saline with Tween-80
[9] = dose: 50.0 mg/kg/injection, schedule: Q01DX005 (ip), vehicle: saline with Tween-80
[10] = dose: 100.0 mg/kg/injection, schedule: Q01DX005 (ip), vehicle: saline with Tween-80
[11] = dose: 200.0 mg/kg/injection, schedule: Q01DX005 (ip), vehicle: saline with Tween-80
[12] = dose: 25.0 mg/kg/injection, schedule: Q01DX009 (ip), vehicle: saline with Tween-80
[13] = dose: 50.0 mg/kg/injection, schedule: Q01DX009 (ip), vehicle: saline with Tween-80
[14] = dose: 60.0 mg/kg/injection, schedule: Q01DX005 (ip), vehicle: Klucel (hydroxypropylcellulose) (HPC)
[15] = dose: 120.0 mg/kg/injection, schedule: Q01DX005 (ip), vehicle: Klucel (hydroxypropylcellulose) (HPC)
[16] = dose: 240.0 mg/kg/injection, schedule: Q01DX005 (ip), vehicle: Klucel (hydroxypropylcellulose) (HPC)
[17] = dose: 240.0 mg/kg/injection, schedule: Q01DX005 (ip), vehicle: saline with Tween-80
[18] = dose: 200.0 mg/kg/injection, schedule: Q01DX009 (ip), vehicle: Klucel (hydroxypropylcellulose) (HPC)

Measured: T/C

CC(C)N1CSC(=S)NCCNC(=S)SC1
inactive: [1] 101 % of control | [2] 110 % of control | dose: 200.0 mg/kg/injection, schedule: Q01DX005 (ip), vehicle: Klucel (hydroxypropylcellulose) (HPC) 110 % of control

COc1cc(CC(NC(C)=O)C(=O)O)cc(OC)c1OC (stereo not drawn)
inactive: dose: 100.0 mg/kg/injection, schedule: Q01DX001 (ip), vehicle: saline 105 % of control | dose: 200.0 mg/kg/injection, schedule: Q01DX001 (ip), vehicle: saline 99 % of control | dose: 400.0 mg/kg/injection, schedule: Q01DX001 (ip), vehicle: saline 100 % of control

COC(=O)c1ccnc2nc[nH]c12
inactive: dose: 100.0 mg/kg/injection, schedule: Q01DX001 (ip), vehicle: water 103 % of control | dose: 200.0 mg/kg/injection, schedule: Q01DX001 (ip), vehicle: water 104 % of control | dose: 400.0 mg/kg/injection, schedule: Q01DX001 (ip), vehicle: water 104 % of control

C[C@]12CC[C@H](OC(=O)/C=C\c3ccccc3N(CCCl)CCCl)CC1CC[C@@H]1C2CC[C@]2(C)NC(=O)CCC12 (stereo partly drawn)
inactive: [3] 105 % of control and 120 % of control | [4] 118 % of control

C=C1OC(C)=C(C(=O)OC(C)(C)C)C1C (stereo not drawn)
inactive: [3] 106 % of control | [4] 102 % of control | dose: 400.0 mg/kg/injection, schedule: Q01DX001 (ip), vehicle: saline with Tween-80 105 % of control

NC(CSCCNc1ccc([N+](=O)[O-])cc1[N+](=O)[O-])C(=O)O (stereo not drawn)
inactive: dose: 25.0 mg/kg/injection, schedule: Q04DX003 (ip), vehicle: Klucel (hydroxypropylcellulose) (HPC) 99 % of control | dose: 50.0 mg/kg/injection, schedule: Q04DX003 (ip), vehicle: Klucel (hydroxypropylcellulose) (HPC) 100 % of control | dose: 100.0 mg/kg/injection, schedule: Q04DX003 (ip), vehicle: Klucel (hydroxypropylcellulose) (HPC) 89 % of control | dose: 200.0 mg/kg/injection, schedule: Q04DX003 (ip), vehicle: Klucel (hydroxypropylcellulose) (HPC) 99 % of control

NC(=O)c1ccc[n+](Cc2ccccc2)c1
inactive: dose: 12.5 mg/kg/injection, schedule: Q01DX009 (ip), vehicle: Klucel (hydroxypropylcellulose) (HPC) 110 % of control | dose: 25.0 mg/kg/injection, schedule: Q01DX009 (ip), vehicle: Klucel (hydroxypropylcellulose) (HPC) 91 % of control | [5] 112 % of control | [6] 93 % of control

CN(C)CCOc1cccc2c1CCC2
inactive: [7] 107 % of control | [8] 87 % of control

O=C(O)CCCc1ccc2ccc3cccc4ccc1c2c34
inactive: [9] 102 % of control | [10] 98 % of control | [11] 100 % of control

COc1ccc(Sc2ccccn2)cc1OC
inactive: [9] 101 % of control | [10] 106 % of control | [11] 114 % of control

O=Cc1cccc(CC(O)(C(F)(F)F)C(F)(F)F)n1
inactive: dose: 12.5 mg/kg/injection, schedule: Q01DX009 (ip), vehicle: saline with Tween-80 95 % of control | dose: 12.5 mg/kg/injection, schedule: Q04DX003 (ip), vehicle: saline with Tween-80 100 % of control | [12] 100 % of control | dose: 25.0 mg/kg/injection, schedule: Q04DX003 (ip), vehicle: saline with Tween-80 100 % of control | [13] 100 % of control | dose: 50.0 mg/kg/injection, schedule: Q04DX003 (ip), vehicle: saline with Tween-80 95 % of control

Clc1ccc(C(Nc2nncs2)Nc2nncs2)cc1Cl
inactive: [14] 94 % of control | [15] 96 % of control | [16] 102 % of control

O=C1C(=O)N(c2ccccc2)[C@]2(c3ccccc3)C1=C(c1ccccc1)N(c1ccccc1)C(=O)N2c1ccccc1
inactive: [9] 97 % of control | [10] 88 % of control | [11] 88 % of control

N#CC(C(=O)CCc1nc2ccccc2[nH]1)c1ccccc1Cl (stereo not drawn)
inactive: [7] 111 % of control | [8] 105 % of control | [17] 96 % of control

CC(C)N=c1sc(-c2ccccc2)c(C#N)c(=O)n1C(C)C
inactive: [12] 101 % of control | [13] 103 % of control | dose: 100.0 mg/kg/injection, schedule: Q01DX009 (ip), vehicle: saline with Tween-80 103 % of control

O=C(CBr)NCC1OC(n2cnc3c(=O)[nH]cnc32)C(O)C1O (stereo not drawn)
inactive: dose: 25.0 mg/kg/injection, schedule: Q01DX005 (ip), vehicle: Klucel (hydroxypropylcellulose) (HPC) 99 % of control | [1] 96 % of control | [2] 99 % of control

CCO/C=C(\C)CC1([N+](=O)[O-])C(=O)c2ccccc2C1=O
inactive: [14] 107 % of control | [15] 107 % of control | [16] 117 % of control

CC(C)CC(NP(=S)(c1ccccc1)c1ccccc1)C(=O)O (stereo not drawn)
inactive: [5] 111 % of control | [6] 105 % of control | [18] 108 % of control

Cc1ccc(S(=O)OC2CC(C)CCC2C(C)C)cc1 (stereo not drawn)
inactive: [5] 100 % of control | [6] 101 % of control | [18] 100 % of control

Cc1ccc([N+](=O)[O-])cc1NC(=O)COc1cc(Cl)c(Cl)cc1Cl
inactive: dose: 100.0 mg/kg/injection, schedule: Q04DX003 (ip), vehicle: saline with Tween-80 90 % of control | dose: 200.0 mg/kg/injection, schedule: Q04DX003 (ip), vehicle: saline with Tween-80 90 % of control | dose: 400.0 mg/kg/injection, schedule: Q04DX003 (ip), vehicle: saline with Tween-80 95 % of control

O=C(c1ccccc1)C1(Cl)CCCCC1
inactive: dose: 25.0 mg/kg/injection, schedule: Q01DX009 (ip), vehicle: saline + alcohol 99 % of control | dose: 50.0 mg/kg/injection, schedule: Q01DX009 (ip), vehicle: saline + Tween-80 + alcohol 108 % of control | dose: 50.0 mg/kg/injection, schedule: Q01DX009 (ip), vehicle: saline + alcohol 91 % of control | dose: 100.0 mg/kg/injection, schedule: Q01DX009 (ip), vehicle: saline + Tween-80 + alcohol 104 % of control | dose: 100.0 mg/kg/injection, schedule: Q01DX009 (ip), vehicle: saline + alcohol 100 % of control | dose: 200.0 mg/kg/injection, schedule: Q01DX009 (ip), vehicle: saline + Tween-80 + alcohol 99 % of control | dose: 200.0 mg/kg/injection, schedule: Q01DX009 (ip), vehicle: saline + alcohol 92 % of control | dose: 400.0 mg/kg/injection, schedule: Q01DX009 (ip), vehicle: saline + Tween-80 + alcohol 112 % of control

CCOC(=O)C1=CC(C(=O)OCC)=C2C=CC=C3C=CC=C1N32
inactive: [7] 93 % of control | [8] 90 % of control | [17] 88 % of control

COC(=O)c1oc2c(c1C(=O)OC)c1ccccc1n2C(C)=O
inactive: dose: 100.0 mg/kg/injection, schedule: Q04DX002 (ip), vehicle: saline with Tween-80 102 % of control | dose: 200.0 mg/kg/injection, schedule: Q04DX002 (ip), vehicle: saline with Tween-80 105 % of control | dose: 400.0 mg/kg/injection, schedule: Q04DX002 (ip), vehicle: saline with Tween-80 100 % of control

CCc1nc2c(Br)c3oc(CC)nc3c(C)c2o1
inactive: [14] 97 % of control | [15] 95 % of control | [16] 91 % of control

BrC1CCC(OCc2ccccc2)C(OCc2ccccc2)C1 (stereo not drawn)
inactive: [5] 100 % of control | [6] 98 % of control | [18] 97 % of control

CCO/C=C1/N=C(c2cc(OC)cc(OC)c2)OC1=O
inactive: dose: 15.0 mg/kg/injection, schedule: Q01DX005 (ip), vehicle: saline with Tween-80 104 % of control | dose: 30.0 mg/kg/injection, schedule: Q01DX005 (ip), vehicle: saline with Tween-80 101 % of control | [7] 90 % of control and 96 % of control | [17] 87 % of control

CCOC(=O)Nc1c(CC(C)(C)O)n[nH]c1C
inactive: [9] 103 % of control | [10] 100 % of control | [11] 100 % of control

COC1C=CCCC1 (stereo not drawn)
inactive: dose: 100.0 mg/kg/injection, schedule: Q01DX001 (ip), vehicle: Klucel (hydroxypropylcellulose) (HPC) 108 % of control | dose: 200.0 mg/kg/injection, schedule: Q01DX001 (ip), vehicle: Klucel (hydroxypropylcellulose) (HPC) 117 % of control | dose: 400.0 mg/kg/injection, schedule: Q01DX001 (ip), vehicle: Klucel (hydroxypropylcellulose) (HPC) 106 % of control
